Laboratory results reported in ChEMBL document CHEMBL1155602, “Three new scalarane sesterterpenoids from the Okinawan sponge Hyrtios erectus” (J Nat Prod, 2000).
Values after ≈ are worked out from the molar mass of the structure shown.

Test system: KB
Test: Antiproliferative activity against human KB cells
Assay type: functional, cell-based

IC50: 2.82 mg/L (≈ 7.86 µM)
Compound: CC1(C)CCC[C@]2(C)[C@H]3C[C@@H](O)[C@]4(C)C=C(C=O)CC[C@H]4[C@]3(C)CC[C@@H]12
